Experimental data reported in US7781416B2, “Derivatives of partially desulphated glycosaminoglycans as heparanase inhibitors, endowed with antiangiogenic activity and devoid of anticoagulating effect” (Sigma-Tau Research Switzerland S.A., priority 2002, dated 2010).

Legend:
Format in all cases: biochemical
recombinant heparanase [1] = molecular target: T1, recombinant heparanase (Homo sapiens, UniProt Q9Y251); test: Heparanase inhibition activity with sulfate labeled ECM as substrate (Example 4, Table 2); settings: 1 μg/ml; heparanase 40 ng/ml, 4 h, 37° C., pH 6.0
T1 construct: Recombinant enzymatically active heparanase was purified from heparanase-transfected CHO cells; made in house; host or cells: CHO cells transfected with heparanase
T1 sequence (Q9Y251 158-543 limits assumed): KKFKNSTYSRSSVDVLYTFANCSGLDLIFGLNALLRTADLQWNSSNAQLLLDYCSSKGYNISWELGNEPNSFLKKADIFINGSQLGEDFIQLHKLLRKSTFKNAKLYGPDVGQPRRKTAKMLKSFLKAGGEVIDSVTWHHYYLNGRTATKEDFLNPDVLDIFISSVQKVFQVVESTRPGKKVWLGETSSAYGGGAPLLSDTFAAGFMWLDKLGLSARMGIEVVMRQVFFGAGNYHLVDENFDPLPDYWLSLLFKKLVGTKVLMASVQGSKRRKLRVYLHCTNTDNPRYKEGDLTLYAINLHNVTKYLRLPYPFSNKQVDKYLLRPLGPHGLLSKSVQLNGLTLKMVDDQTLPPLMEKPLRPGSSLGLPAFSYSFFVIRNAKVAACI
T1 sequence (Q9Y251 36-109 limits assumed): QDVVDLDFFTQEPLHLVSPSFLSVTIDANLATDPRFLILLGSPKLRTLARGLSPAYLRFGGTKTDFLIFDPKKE
Protocol: Recombinant enzymatically active heparanase was purified from heparanase-transfected CHO cells (1).
Bovine corneal endothelial cells were plated into 35-mm tissue culture dishes at an initial density of 2×10^5 cells/ml and cultured as described above, except that 4% dextran T-40 was included in the growth medium (1, 52). On day 12, the subendothelial ECM was exposed by dissolving the cell layer with PBS containing 0.5% Triton X-100 and 20 mM NH4OH, followed by four washes with PBS (12). The ECM remained intact, free of cellular debris and firmly attached to the entire area of the tissue culture dish. To produce sulfate labelled ECM, […] (Amersham, Buckinghamshire, UK) was added (25 μCi/ml) on days 2 and 5 after seeding and the cultures were incubated with the label without medium change and processed as described (1, 52). Nearly 80% of the ECM radioactivity was incorporated into HSPG.
Heparin species were tested for their ability to inhibit heparanase, using metabolically sulfate labeled ECM as a substrate. […] Fractions (0.2 ml) were eluted with PBS at a flow rate of 5 ml/h and counted for radioactivity. […]
Heparanase activity is calculated as the total amount of cpm eluted in peak II multiplied by the Kav (i.e., elution position) of these fragments. […]

recombinant heparanase [2] = molecular target: T2, recombinant heparanase (Homo sapiens, UniProt Q9Y251); test: Heparanase inhibition, fragmentation of HS of sulphate labelled ECM (Table 1); settings: pH 6.2
T2 sequence (Q9Y251 36-543): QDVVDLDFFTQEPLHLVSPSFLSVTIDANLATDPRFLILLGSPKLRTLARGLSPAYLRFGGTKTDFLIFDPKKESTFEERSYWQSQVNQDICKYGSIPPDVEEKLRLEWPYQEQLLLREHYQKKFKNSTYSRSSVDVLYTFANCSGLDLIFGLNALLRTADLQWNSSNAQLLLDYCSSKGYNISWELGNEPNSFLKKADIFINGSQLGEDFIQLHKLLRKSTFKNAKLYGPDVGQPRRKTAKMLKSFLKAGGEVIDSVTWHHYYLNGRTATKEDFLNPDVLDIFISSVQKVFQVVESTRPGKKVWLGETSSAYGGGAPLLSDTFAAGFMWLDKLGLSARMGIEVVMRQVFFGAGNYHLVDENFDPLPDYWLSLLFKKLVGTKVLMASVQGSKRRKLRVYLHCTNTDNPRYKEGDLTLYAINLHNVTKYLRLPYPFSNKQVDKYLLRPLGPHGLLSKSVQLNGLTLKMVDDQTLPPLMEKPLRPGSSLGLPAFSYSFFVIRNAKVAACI
Protocol: The heparanase inhibiting activity was determined according to a method established by Vlodavsky's group (Bitan M. et al, 1995). The method is based on evaluation of the extent of fragmentation of the heparan sulphate chains of heparan sulphate proteoglycans (HSPG) caused by heparanase. Sulphate labelled extracellular matrix (ECM) is most commonly used as a source of HSPG. Sulphate labelled ECM is incubated with recombinant heparanase at pH 6.2 in the absence and in the presence of increasing concentrations of the test compound. To evaluate the occurrence of proteoglycan degradation, the incubation medium is collected and applied for gel filtration on Sepharose 6B columns (0.9×30 cm). Fractions (0,2 ml) are eluted with PBS at a flow rate of 5 ml/h and counted for radioactivity. The excluded volume (Vo) is marked by blue dextran and the total included volume (Vt) by phenol red. Degradation fragments of HS side chains are eluted from Sepharose 6B at 0.5<Kav<0.8 (peak II).

recombinant heparanase [3] = molecular target: T1, recombinant heparanase; test: Gel permeation analysis before and after digestion with heparanase (susceptibility to cleavage); settings: 2 mg compound, 4 μg recombinant heparanase, 48 h, 37° C., pH 5.8; GPC-HPLC
Protocol: FIG. 8. Glycol-splitting inhibits cleavage by heparanase. Gel filtration profiles of fully N-acetylated heparin (A) and 52% glycol split heparin (B) before (a) and after (b) incubation with heparanase. 2 mg of each compound were incubated for 48 h at 37° C. in 40 mM phosphate-citrate buffer, pH 5.8, with or without 4 μg recombinant heparanase in a total volume of 50 μl. The samples were lyophilized, then redisolved in 0.5 ml water and analyzed by GPC-HPLC using 300×7.8 mm TSK PW 2000 and PW 3000 colums and a refraction index detector. The sharp peak is from salts.
Gel permeation analysis of N-acetyl heparin (NAH) and ˜50% glycol-split heparin (H, 52gs) before and after digestion with heparinase 2 mg of each compound were incubated for 48 h at 37° C. in 40 mM phosphate-citrate buffer, pH 5.8, with or without 4 μg recombinant heparanase in a total volume of 50 μl. The samples were lyophilized, then redisolved in 0.5 ml of water and analyzed by GPC-HPLC using 300×7.8 mm TSK PW 2000 and PW 3000 columns.

**Q.** With Heparin as the substance, how does the “Heparanase inhibitory activity, % Mean [SD (N)]” value (recombinant heparanase [1]) read?
**A.** ~70%

**Q.** And the Inhibition (recombinant heparanase [2])?
**A.** >100%

**Q.** And the cleavage by heparanase (recombinant heparanase [3])?
**A.** cleaved by heparanase
